Test results reported in PubChem BioAssay AID1963427 (Molecular Pharmacology Branch, DTP, NCI, 2024).
pIC50: −log10 of the molar value.

Tested on: 317291-083-R-J1-PDC complex spheroid growth
Test: Anticancer human tumor 317291-083-R-J1-PDC patient-derived soft tissue sarcoma cell line growth inhibition [Asc]
Conditions: for pIC50: curve of first compound; for viability, T/C: stronger effect = lower value; active = viability on the fitted dose curve at most 10% of control; inactive = the rest
Experimental: Multicellular complex tumor spheroid response to apoptosis pathway targeting inhibitors Alrizomadlin, Pelcitoclax, and Dasminapant in combination with a variety of drugs and investigational agents in selected tumor cell lines
The MDM2 inhibitor alrizomadlin, the Bcl-2/Bcl-xL inhibitor pelcitoclax, and the IAPs inhibitor dasminapant were evaluated both individually and in combination with standard of care and investigational anticancer small molecules within a complex spheroid model of solid tumors. . Complex spheroids include a stromal component modeled by human endothelial cells (HUVEC) and fibroblasts modeled by human mesenchymal stem cells (MSCs). The concentration ranges selected for each drug and investigational agent were based upon clinically achievable concentrations if the clinical Cmax of the agent was known.
Compounds. The drugs and investigational agents: alrizomadlin (APG-115; NSC831270), pelcitoclax (APG-1252; NSC835773), dasminapant (APG-1387;NSC834197), TAK-243 (NSC785004), copanlisib (NSC809693), olaparib (NSC753686), talazoparib (NSC767125), cobimetinib (NSC 768068), eltanexor (KPT-8602, NSC 794443), abemaciclib (NSC 768073), sotorasib (NSC818433), adagrasib (NSC 831453), MRTX-1133 (NSC 836407), Iadademestat (ORY1001, NSC 806812), and RMC-4630 (NSC839698), were obtained from the NCI Developmental Therapeutics Program Chemical Repository. The FDA-approved anticancer drug set is available from the Developmental Therapeutics Program at https://dtp.cancer.gov/organization/dscb/obtaining/available plates.htm. […] The stock solutions were prepared in dimethyl sulfoxide (DMSO, Sigma-Aldrich, St. Louis, MO, cat. D2650) at 800-fold the tested concentration and stored at -70 degrees C prior to their use. All drugs and investigational agents were tested over a range starting from a high concentration at or near the clinical Cmax and decreasing in half-log increments. If the clinical Cmax for an agent had not been determined, the highest concentration tested was 10 microM.
The patient-derived cancer (PDC) cell lines include five colon adenocarcinomas: 186277-243-T-J2-PDC, 616215-338-R-J1-PDC, 439559-082-T-J2-PDC, 463943-066-T-J2-PDC, and 519858-162-T-J1-PDC; three pancreatic carcinomas: 323965-272-R-J2-PDC, 521955-158-R6-J3-PDC, and 521955-158-R2-J5-PDC; two uterine sarcomas: 327498-152-R-J2-PDC and 993429-296-R-J1-PDC; two rhabdomyosarcomas: 755483-174-R-J1-PDC and 772245-204-R-J1-PDC; two soft tissue sarcomas: 126254-015-R-J1-PDC and 494315-158-R-J1-PDC; two malignant fibrous histiocytomas: 317291-083-R-J1-PDC and 596521-263-R-J1-PDC; two breast carcinomas: 171881-019-R-J1-PDC and 885512-296-R-J2-PDC; and one ovarian carcinoma: 6556581-035-R-J-PDC were obtained from the NCI PDMR, (https://pdmr.cancer.gov). The established cell lines HSSY-2 synovial sarcoma (RRID:CVCL 8719), SYO-1 synovial sarcoma (RRID:CVCL_7146), MPNST malignant peripheral neural sheath tumor were obtained from the Sloan Kettering Institute. The following established cell lines were purchased from the American Type Culture Collection (ATCC, Manassas, VA), Sor the received from the NCI repository:, PANC-1 pancreatic carcinoma (CRL-1469, RRID:CVCL_0480), OVCAR-5 ovarian carcinoma (RRID:CVCL_1628), OVCAR-8 ovarian carcinoma (RRID:CVCL_1629), , MCF-7 breast carcinoma (CRL-12584, RRID:CVCL_0031), MDA-MB-231 breast carcinoma (CRL-12532, RRID:CVCL_0062), NCI-H1876 small cell lung carcinoma (CRL-5902, RRID:CVCL_1503), NCI-H510A small cell lung carcinoma (HTB-184, RRID:CVCL_1565), NCI-H1417 (CRL-5869, RRID:CVCL_1469), and NCI-H196 small cell lung carcinoma (CRL-5823, RRID:CVCL_1509). Dr. Peter Houghton (Greehey Children's Cancer Research Institute, University of Texas Health Science Center, San Antonio, TX) provided Rh-18 rhabdomyosarcoma (RRID:CVCL_1659). Pooled donor human umbilical vein endothelial cells (HUVEC, Lonza, cat. CC-2519) and human mesenchymal stem cells (hMSC, Lonza, cat. PT-2501) were purchased from Lonza (Walkersville, MD).
Cell Culture. […]

[1] = second compound 0.00949 µM, first compound 0.0316 µM
[2] = second compound 0.00949 µM, first compound 0.1 µM
[3] = second compound 0.03 µM, first compound 0.0316 µM
[4] = second compound 0.03 µM, first compound 0.1 µM
[5] = second compound 0.0949 µM, first compound 0.0316 µM
[6] = second compound 0.0949 µM, first compound 0.1 µM
[7] = second compound 0.3 µM, first compound 0.0316 µM
[8] = second compound 0.3 µM, first compound 0.1 µM
[9] = second compound 0.949 µM, first compound 0.0316 µM
[10] = second compound 0.949 µM, first compound 0.1 µM
[11] = second compound 3 µM, first compound 0.0316 µM
[12] = second compound 3 µM, first compound 0.1 µM
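Note: compound exposure lasted seven days after spheroids formed for three days.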
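Throughout, for viability, T/C: 100% = DMSO vehicle control wells.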

Cn1ncnc1[C@H]1c2n[nH]c(=O)c3cc(F)cc(c23)N[C@@H]1c1ccc(F)cc1 + CCN1C(C(=O)NC23CCC(C(=O)O)(CC2)CC3)C(c2cccc(Cl)c2F)C2(C(=O)Nc3cc(Cl)ccc32)C12CCCCC2
< 7.00: pIC50 (second compound 0.00949 µM) | pIC50 (second compound 0.03 µM) | pIC50 (second compound 0.0949 µM) | pIC50 (second compound 0.3 µM) | pIC50 (second compound 0.949 µM) | pIC50 (second compound 3 µM)
inactive: viability, T/C (second compound 0.00949 µM, first compound 0.000316 µM) 108% | viability, T/C (second compound 0.00949 µM, first compound 0.001 µM) 88.4% | viability, T/C (second compound 0.00949 µM, first compound 0.00316 µM) 102% | viability, T/C (second compound 0.00949 µM, first compound 0.01 µM) 100% | viability, T/C [1] 81.9% | viability, T/C [2] 66.9% | viability, T/C (second compound 0.03 µM, first compound 0.000316 µM) 99.6% | viability, T/C (second compound 0.03 µM, first compound 0.001 µM) 107% | viability, T/C (second compound 0.03 µM, first compound 0.00316 µM) 105% | viability, T/C (second compound 0.03 µM, first compound 0.01 µM) 81.3% | viability, T/C [3] 76.1% | viability, T/C [4] 87.3% | viability, T/C (second compound 0.0949 µM, first compound 0.000316 µM) 95.3% | viability, T/C (second compound 0.0949 µM, first compound 0.001 µM) 96% | viability, T/C (second compound 0.0949 µM, first compound 0.00316 µM) 103% | viability, T/C (second compound 0.0949 µM, first compound 0.01 µM) 86.3% | viability, T/C [5] 77.6% | viability, T/C [6] 70.4% | viability, T/C (second compound 0.3 µM, first compound 0.000316 µM) 106% | viability, T/C (second compound 0.3 µM, first compound 0.001 µM) 101% | viability, T/C (second compound 0.3 µM, first compound 0.00316 µM) 107% | viability, T/C (second compound 0.3 µM, first compound 0.01 µM) 89.5% | viability, T/C [7] 73.9% | viability, T/C [8] 64.6% | viability, T/C (second compound 0.949 µM, first compound 0.000316 µM) 95.4% | viability, T/C (second compound 0.949 µM, first compound 0.001 µM) 89.3% | viability, T/C (second compound 0.949 µM, first compound 0.00316 µM) 103% | viability, T/C (second compound 0.949 µM, first compound 0.01 µM) 93.6% | viability, T/C [9] 75.8% | viability, T/C [10] 72.1% | viability, T/C (second compound 3 µM, first compound 0.000316 µM) 82% | viability, T/C (second compound 3 µM, first compound 0.001 µM) 69% | viability, T/C (second compound 3 µM, first compound 0.00316 µM) 77.4% | viability, T/C (second compound 3 µM, first compound 0.01 µM) 79.7% | viability, T/C [11] 65.1% | viability, T/C [12] 62.7%

O=C(c1cc(Cc2n[nH]c(=O)c3ccccc23)ccc1F)N1CCN(C(=O)C2CC2)CC1 + CCN1C(C(=O)NC23CCC(C(=O)O)(CC2)CC3)C(c2cccc(Cl)c2F)C2(C(=O)Nc3cc(Cl)ccc32)C12CCCCC2
inactive: viability, T/C [1] 111% | viability, T/C [2] 108% | viability, T/C (second compound 0.00949 µM, first compound 0.316 µM) 108% | viability, T/C (second compound 0.00949 µM, first compound 1 µM) 86.9% | viability, T/C (second compound 0.00949 µM, first compound 3.16 µM) 92.7% | viability, T/C (second compound 0.00949 µM, first compound 10 µM) 46.2% | viability, T/C [3] 110% | viability, T/C [4] 101% | viability, T/C (second compound 0.03 µM, first compound 0.316 µM) 102% | viability, T/C (second compound 0.03 µM, first compound 1 µM) 104% | viability, T/C (second compound 0.03 µM, first compound 3.16 µM) 81.7% | viability, T/C (second compound 0.03 µM, first compound 10 µM) 54.6% | viability, T/C [5] 101% | viability, T/C [6] 105% | viability, T/C (second compound 0.0949 µM, first compound 0.316 µM) 92.1% | viability, T/C (second compound 0.0949 µM, first compound 1 µM) 104% | viability, T/C (second compound 0.0949 µM, first compound 3.16 µM) 77.2% | viability, T/C (second compound 0.0949 µM, first compound 10 µM) 53% | viability, T/C [7] 116% | viability, T/C [8] 114% | viability, T/C (second compound 0.3 µM, first compound 0.316 µM) 102% | viability, T/C (second compound 0.3 µM, first compound 1 µM) 91.2% | viability, T/C (second compound 0.3 µM, first compound 3.16 µM) 93.2% | viability, T/C (second compound 0.3 µM, first compound 10 µM) 46.2% | viability, T/C [9] 107% | viability, T/C [10] 109% | viability, T/C (second compound 0.949 µM, first compound 0.316 µM) 107% | viability, T/C (second compound 0.949 µM, first compound 1 µM) 92.4% | viability, T/C (second compound 0.949 µM, first compound 3.16 µM) 88.9% | viability, T/C (second compound 0.949 µM, first compound 10 µM) 51.9% | viability, T/C [11] 88.2% | viability, T/C [12] 85.3% | viability, T/C (second compound 3 µM, first compound 0.316 µM) 81.1% | viability, T/C (second compound 3 µM, first compound 1 µM) 83.3% | viability, T/C (second compound 3 µM, first compound 3.16 µM) 77.1% | viability, T/C (second compound 3 µM, first compound 10 µM) 41.8%
5.03: pIC50 (second compound 0.00949 µM)
5.02: pIC50 (second compound 0.3 µM)
5.11: pIC50 (second compound 3 µM)
< 5.00: pIC50 (second compound 0.03 µM) | pIC50 (second compound 0.0949 µM) | pIC50 (second compound 0.949 µM)
